Tested on: skin
Test: Affymetrix microarray of skin, DBP-4 hr and analogs vs. untreated; gene selection by log-2 fold change, Wilcoxon, Kendall tau (Tables 8, 9)
Format: in vivo, mouse

CCCCOC(=O)c1ccccc1C(=O)OCCCC [DBP, dibutylphthalate]
No: Wilcoxon: Pigp (gene Pigp, NM_019543_at, DBP-4 hr vs. untreated) | Wilcoxon: Pkp4 (gene Pkp4, NM_026361_at, DBP-4 hr vs. untreated) | Wilcoxon: Plk3 (gene Plk3, NM_013807_at, DBP-4 hr vs. untreated) | Wilcoxon: Polr2g (gene Polr2g, NM_026329_at, DBP-4 hr vs. untreated) | Wilcoxon: Pparg (gene Pparg, NM_011146_at, DBP-4 hr vs. untreated) | Wilcoxon: Ppp1r7 (gene Ppp1r7, NM_023200_at, DBP-4 hr vs. untreated) | Wilcoxon: Prokr1 (gene Prokr1, NM_021381_at, DBP-4 hr vs. untreated) | Wilcoxon: Ptpn1 (gene Ptpn1, NM_011201_at, DBP-4 hr vs. untreated) | Wilcoxon: Rabgef1 (gene Rabgef1, NM_019983_at, DBP-4 hr vs. untreated) | Wilcoxon: Rai12 (gene Rai12, NM_018740_at, DBP-4 hr vs. untreated) | Wilcoxon: Rbbp6 (gene Rbbp6, NM_011247_at, DBP-4 hr vs. untreated) | Wilcoxon: Rpl7l1 (gene Rpl7l1, NM_025433_at, DBP-4 hr vs. untreated) | Wilcoxon: Sema4d (gene Sema4d, NM_013660_at, DBP-4 hr vs. untreated) | Wilcoxon: Siae (gene Siae, NM_011734_at, DBP-4 hr vs. untreated) | Wilcoxon: Sirt1 (gene Sirt1, NM_019812_at, DBP-4 hr vs. untreated) | Wilcoxon: Slc9a3r1 (gene Slc9a3r1, NM_012030_at, DBP-4 hr vs. untreated) | Wilcoxon: Slc30a4 (gene Slc30a4, NM_011774_at, DBP-4 hr vs. untreated) | Wilcoxon: Slc35a1 (gene Slc35a1, NM_011895_at, DBP-4 hr vs. untreated) | Wilcoxon: Smarcb1 (gene Smarcb1, NM_011418_at, DBP-4 hr vs. untreated) | Wilcoxon: Srsf6 (gene Srsf6, NM_026499_at, DBP-4 hr vs. untreated) | Wilcoxon: Stx17 (gene Stx17, NM_026343_at, DBP-4 hr vs. untreated) | Wilcoxon: Tmed1 (gene Tmed1, NM_010744_at, DBP-4 hr vs. untreated) | Wilcoxon: Tmem208 (gene Tmem208, NM_025486_at, DBP-4 hr vs. untreated) | Wilcoxon: Tnfrsf1a (gene Tnfrsf1a, NM_011609_at, DBP-4 hr vs. untreated) | Wilcoxon: Tnfrsf9 (gene Tnfrsf9, NM_011612_at, DBP-4 hr vs. untreated) | Wilcoxon: Trappc2l (gene Trappc2l, NM_021502_at, DBP-4 hr vs. untreated) | Wilcoxon: Tril (gene Tril, NM_025817_at, DBP-4 hr vs. untreated) | Wilcoxon: Trim12a (gene Trim12a, NM_023835_at, DBP-4 hr vs. untreated) | Wilcoxon: Trip4 (gene Trip4, NM_019797_at, DBP-4 hr vs. untreated) | Wilcoxon: Trp63 (gene Trp63, NM_011641_at, DBP-4 hr vs. untreated) | Wilcoxon: Trpv2 (gene Trpv2, NM_011706_at, DBP-4 hr vs. untreated) | Wilcoxon: Tsn (gene Tsn, NM_011650_at, DBP-4 hr vs. untreated) | Wilcoxon: Ufc1 (gene Ufc1, NM_025388_at, DBP-4 hr vs. untreated) | Wilcoxon: Ulk2 (gene Ulk2, NM_013881_at, DBP-4 hr vs. untreated) | Wilcoxon: Wbp1 (gene Wbp1, NM_016757_at, DBP-4 hr vs. untreated) | Wilcoxon: Zfp68 (gene Zfp68, NM_013844_at, DBP-4 hr vs. untreated) | Wilcoxon: Zfp90 (gene Zfp90, NM_011764_at, DBP-4 hr vs. untreated) | Wilcoxon: Zkscan3 (gene Zkscan3, NM_023685_at, DBP-4 hr vs. untreated) | Wilcoxon: Zkscan6 (gene Zkscan6, NM_026107_at, DBP-4 hr vs. untreated) | 1110032A04Rik NM_133675_at ≧2-Fold change (mouse, in vivo) | 2510002D24Rik NM_001033164_at ≧2-Fold change (mouse, in vivo) | 2510009E07Rik NM_001001881_at ≧2-Fold change (mouse, in vivo) | 2610528A11Rik XR_105647_at ≧2-Fold change (mouse, in vivo) | 1500015010Rik NM_024283_at ≧2-Fold change (mouse, in vivo) | 3110079015Rik NM_028473_at ≧2-Fold change (mouse, in vivo) | A2m NM_175628_at ≧2-Fold change (mouse, in vivo)
Yes: Kendall: Pigp (gene Pigp, NM_019543_at, gene expression vs. output) | Kendall: Pkp4 (gene Pkp4, NM_026361_at, gene expression vs. output) | Kendall: Plk3 (gene Plk3, NM_013807_at, gene expression vs. output) | Kendall: Polr2g (gene Polr2g, NM_026329_at, gene expression vs. output) | Kendall: Pparg (gene Pparg, NM_011146_at, gene expression vs. output) | Kendall: Ppp1r7 (gene Ppp1r7, NM_023200_at, gene expression vs. output) | Kendall: Prokr1 (gene Prokr1, NM_021381_at, gene expression vs. output) | Kendall: Ptpn1 (gene Ptpn1, NM_011201_at, gene expression vs. output) | Kendall: Rabgef1 (gene Rabgef1, NM_019983_at, gene expression vs. output) | Kendall: Rai12 (gene Rai12, NM_018740_at, gene expression vs. output) | Kendall: Rbbp6 (gene Rbbp6, NM_011247_at, gene expression vs. output) | Kendall: Rpl7l1 (gene Rpl7l1, NM_025433_at, gene expression vs. output) | Kendall: Sema4d (gene Sema4d, NM_013660_at, gene expression vs. output) | Kendall: Siae (gene Siae, NM_011734_at, gene expression vs. output) | Kendall: Sirt1 (gene Sirt1, NM_019812_at, gene expression vs. output) | Kendall: Slc9a3r1 (gene Slc9a3r1, NM_012030_at, gene expression vs. output) | Kendall: Slc30a4 (gene Slc30a4, NM_011774_at, gene expression vs. output) | Kendall: Slc35a1 (gene Slc35a1, NM_011895_at, gene expression vs. output) | Kendall: Smarcb1 (gene Smarcb1, NM_011418_at, gene expression vs. output) | Kendall: Srsf6 (gene Srsf6, NM_026499_at, gene expression vs. output) | Kendall: Stx17 (gene Stx17, NM_026343_at, gene expression vs. output) | Kendall: Tmed1 (gene Tmed1, NM_010744_at, gene expression vs. output) | Kendall: Tmem208 (gene Tmem208, NM_025486_at, gene expression vs. output) | Kendall: Tnfrsf1a (gene Tnfrsf1a, NM_011609_at, gene expression vs. output) | Kendall: Tnfrsf9 (gene Tnfrsf9, NM_011612_at, gene expression vs. output) | Kendall: Trappc2l (gene Trappc2l, NM_021502_at, gene expression vs. output) | Kendall: Tril (gene Tril, NM_025817_at, gene expression vs. output) | Kendall: Trim12a (gene Trim12a, NM_023835_at, gene expression vs. output) | Kendall: Trip4 (gene Trip4, NM_019797_at, gene expression vs. output) | Kendall: Trp63 (gene Trp63, NM_011641_at, gene expression vs. output) | Kendall: Trpv2 (gene Trpv2, NM_011706_at, gene expression vs. output) | Kendall: Tsn (gene Tsn, NM_011650_at, gene expression vs. output) | Kendall: Ufc1 (gene Ufc1, NM_025388_at, gene expression vs. output) | Kendall: Ulk2 (gene Ulk2, NM_013881_at, gene expression vs. output) | Kendall: Wbp1 (gene Wbp1, NM_016757_at, gene expression vs. output) | Kendall: Zfp68 (gene Zfp68, NM_013844_at, gene expression vs. output) | Kendall: Zfp90 (gene Zfp90, NM_011764_at, gene expression vs. output) | Kendall: Zkscan3 (gene Zkscan3, NM_023685_at, gene expression vs. output) | Kendall: Zkscan6 (gene Zkscan6, NM_026107_at, gene expression vs. output) | 1600029D21Rik (NM_029639_at) ≧2-Fold change (mouse, in vivo) | 2010002N04Rik (NM_134133_at) ≧2-Fold change (mouse, in vivo) | 2310016C08Rik (NM_023516_at) ≧2-Fold change (mouse, in vivo) | 1810011010Rik (NM_026931_at) ≧2-Fold change (mouse, in vivo)

Reference: patent US20150307938A1, “METHOD TO IDENTIFY A NOVEL CLASS OF IMMUNOLOGIC ADJUVANTS” (Lancell, L.L.C., priority 2011, published 2015)
